Measured values published in US5397780A, “Pyrroloazepine derivative” (Suntory Limited, priority 1993, dated 1995).

Columns and labels:
serotonin (5-HT) = assay: Anti-serotonin (anti-5-HT) action: serotonin-induced contraction of guinea pig superior mesenteric artery; set-up: species or system Hartley male guinea pig; conditions: contraction by 10^-5 M serotonin = 100%
Method: (§1) With respect to certain compounds of the present invention, their anti-α1 action and anti-serotonin (5-HT) action were investigated by the testing methods which will be described below.
A sample cut in a helical form was suspended under 0.3 g load in a Magnus cylinder filled with the Tyrode solution of 37° C. which had been saturated with a mixed gas consisting of 95% O2 +5% CO2. Using an isometric transducer ("UL-10"/SHINKOH K.K.) and a pressure preamplifier ("DSA-605A"/SHINKOH K.K.), variations in tension were measured. The measurement results were recorded on a pen-writing recorder ("VP-6537A"/NATIONAL K.K.). Taking the contraction induced by 10^-5 M serotonin (5-HT) as 100% the percent contractions in the presence of each test drug at 10^-7 and 10^-6 M were determined as anti-5-HT action.

α1 = assay: Anti-α1 action: norepinephrine-induced tonic contraction of guinea pig thoracic aorta; set-up: species or system Hartley male guinea pig; conditions: contraction by 10^-5 M norepinephrine = 100%
Method: as §1
The thoracic aorta of each Hartley male guinea pig (body weight: 300-500 g) was excised. A sample cut in a helical form was suspended under 1 g load in a Magnus cylinder filled with the Tyrode solution of 37° C. which had been saturated with a mixed gas consisting of 95% O2 +5% CO2. Using an isometric transducer ("TB-612J"/NIHON KOHDEN) and a pressure preamplifier ("AP-620G"/NIHON KOHDEN), variations in tension were measured. The measurement results were recorded on a thermal pen-writing recorder ("WT-647G"/NIHON KOHDEN).
Taking the tonic contraction induced by 10^-5 M norepinephrine (NE) as 100% the percent contractions upon addition of each test drug at 10^-8 and 10^-7 M were determined as anti-α1 action.

SMILES | Anti 5-HT action (% of Control), percent contraction (serotonin (5-HT); test drug 10^-6 M, 1 µM) | Anti 5-HT action (% of Control), percent contraction (serotonin (5-HT); test drug 10^-7 M, 0.1 µM) | Anti α1 action (% of Control), percent contraction (α1; test drug 10^-7 M, 0.1 µM) | Anti α1 action (% of Control), percent contraction (α1; test drug 10^-8 M, 0.01 µM)
COc1ccccc1N1CCN(CCCCCn2ccc3c2C(=O)N(Cc2ccccc2)CCC3=O)CC1 [Compound No. 36, 7-Benzyl-1-[5-[4-(2-methoxyphenyl)piperazin-1-yl]pentyl]-6,7-dihydropyrrolo[2,3-c]azepine-4,8(1H,5H)-dione] | 61.8 % of Control | 84.0 % of Control | 21.4 % of Control | 43.6 % of Control
CN1CCC(=NO)c2ccn(CCCCN3CCN(c4cccc(Cl)c4)CC3)c2C1=O [Compound No. 31, 1-[4-[4-(3-Chlorophenyl)piperazin-1-yl]butyl]-4-hydroxyimino-7-methyl-4,5,6,7-tetrahydropyrrolo[2,3-c]azepin-8(1H)-one] | 69.0 % of Control | 86.2 % of Control | 19.4 % of Control | 93.9 % of Control
CN1CCC(=NO)c2ccn(CCCCN3CCN(c4ccc(F)cc4)CC3)c2C1=O [Compound No. 29, 4-Hydroxyimino-7-methyl-1-[4-[4-(4-fluorophenyl)piperazin-1-yl]butyl]-4,5,6,7-tetrahydropyrrolo[2,3-c]azepin-8(1H)-one] | 12.0 % of Control | 66.2 % of Control | 39.5 % of Control | 94.2 % of Control
CN1CCC(O)c2ccn(CCCCN3CCN(c4ccccc4)CC3)c2C1=O (stereo not drawn) [Compound No. 24, 4-hydroxy-7-methyl-1-[4-(4-phenylpiperazin-1-yl)butyl]-4,5,6,7-tetrahydropyrrolo[2,3-c]azepin-8(1H)-one] | 36.0 % of Control | 78.3 % of Control | 41.0 % of Control | 90.3 % of Control
O=C1CCN(Cc2ccccc2)C(=O)c2c1ccn2CCCCCN1CCN(c2ccccc2)CC1 [Compound No. 20, 7-Benzyl-1-[5-(4-phenylpiperazin-1-yl)pentyl]6,7-dihydropyrrolo[2,3-c]azepine-4,8(1H,5H)-dione] | 45.7 % of Control | 54.5 % of Control | 19.9 % of Control | 49.2 % of Control
CN1CCC(=NO)c2ccn(CCCCN3CCN(c4ccccc4)CC3)c2C1=O [Compound No. 27, 4-Hydroxyimino-7-methyl-1-[4-(4-phenylpiperazin-1-yl)butyl]-4,5,6,7-tetrahydropyrrolo[2,3-c]azepin-8(1H)-one] | 25.7 % of Control | 69.8 % of Control | 18.4 % of Control | 74.2 % of Control
